Assay results: patent publication US11219898B2, “Molecular separation by diffusion using an EWOD device” (Sharp Life Science (EU) Limited, priority 2019, dated 2022)

Experiment: Diffusion of fluorescein or calcein through a droplet interface bilayer in an AM-EWOD device
Type: physicochemical
Description: An investigation of the transport of aqueous phase elements between droplets suspended in a non-aqueous supporting medium is conducted. Phospholipid stabilized water in oil droplets are dispensed within an AM-EWOD device. Such droplets are used to produce droplet interface bilayers (DIBs) by the bringing together of individual droplets within the AM-EWOD device. DIBs are used to study diffusion of a solute across the bilayer membrane, as well as to study active transport through pores or ion channels formed in the DIB. In a first experiment, diffusion of fluorescein or calcein through a bilayer is investigated. Under conditions of neutral pH, calcein, a derivative of fluorescein, is generally more polar than fluorescein. […] Thus, fluorescein may more readily diffuse through a bilayer, whereas calcein may not. Three populations of droplets are dispensed within an AM-EWOD device. A first population contains buffer, a second population contains fluorescein at 100 μM concentration, and a third population contains calcein at 100 μM concentration. Droplets containing buffer are brought into contact respectively with droplets containing fluorescein or calcein, under control of the AM-EWOD device. Fluorescence intensity is determined at time t0, t1 (30 minutes) and t2 (60 minutes), with excitation wavelength 494 nm and emission wavelength 515 nm.

SMILES: O=C(O)CN(CC(=O)O)Cc1cc2c(cc1O)Oc1cc(O)c(CN(CC(=O)O)CC(=O)O)cc1C21OC(=O)c2ccccc21 [calcein]
- Fluorescence from the buffer containing droplet after DIB formation (after 60 minutes, 100 μM dye droplet, excitation 494 nm, emission 515 nm): no detectable fluorescence
- Diffusion across the bilayer (summary of results): not
